Patent US9650616B2, “Methods for increasing grain yield” (University of Florida Research Foundation, Inc., priority 2014, dated 2017)
Residue numbers refer to the chain shown, from its start. Read-outs that look alike come from different tables or passages of the source.

Experiments:
Type in all cases: biochemical
[1] = molecular target: T1, maize endosperm AGPase, large subunit variant D161G (numbering of SEQ ID NO: 20) (Zea mays, UniProt P55241+Q84PF5, D161G); assay: Apparent kinetic constants with 3-PGA, 37° C., D161G
T1 sequence (P55241 46-516 D161G): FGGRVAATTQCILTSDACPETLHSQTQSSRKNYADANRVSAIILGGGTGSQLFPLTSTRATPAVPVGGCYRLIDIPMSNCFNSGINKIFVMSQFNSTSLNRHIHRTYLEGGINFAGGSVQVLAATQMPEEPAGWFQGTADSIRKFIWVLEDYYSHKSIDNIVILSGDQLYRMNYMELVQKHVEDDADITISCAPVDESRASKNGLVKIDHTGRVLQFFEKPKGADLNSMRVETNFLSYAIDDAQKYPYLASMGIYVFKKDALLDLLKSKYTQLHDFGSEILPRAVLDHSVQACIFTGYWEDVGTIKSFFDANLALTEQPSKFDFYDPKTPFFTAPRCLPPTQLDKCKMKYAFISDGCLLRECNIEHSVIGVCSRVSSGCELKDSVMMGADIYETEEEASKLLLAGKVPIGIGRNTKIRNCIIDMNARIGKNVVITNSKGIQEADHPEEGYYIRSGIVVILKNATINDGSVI
T1 sequence (Q84PF5 1-474): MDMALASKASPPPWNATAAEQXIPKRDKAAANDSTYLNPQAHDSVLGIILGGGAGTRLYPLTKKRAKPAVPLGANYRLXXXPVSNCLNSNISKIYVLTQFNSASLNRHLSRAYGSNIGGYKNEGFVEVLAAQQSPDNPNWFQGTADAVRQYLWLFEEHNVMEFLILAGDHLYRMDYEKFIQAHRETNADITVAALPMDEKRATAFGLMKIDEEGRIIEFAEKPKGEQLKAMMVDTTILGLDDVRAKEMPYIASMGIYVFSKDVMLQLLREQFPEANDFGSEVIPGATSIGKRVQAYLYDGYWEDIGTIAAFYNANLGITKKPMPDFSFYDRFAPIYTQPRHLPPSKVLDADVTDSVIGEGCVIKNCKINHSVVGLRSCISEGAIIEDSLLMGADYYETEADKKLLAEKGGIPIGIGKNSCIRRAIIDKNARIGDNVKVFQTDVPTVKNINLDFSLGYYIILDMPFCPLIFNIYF
Text: (§1) The small and large subunit plasmids of maize endosperm AGPase (pMONcBt2 and pMONcSh2, respectively) (Giroux et al., 1996) were expressed in E. coli AC70R1-504 cells (Iglesias et al., 1993) as previously described (Boehlein et al., 2008).
(§2) An endpoint assay was used to determine the rate of the AGPase reaction by coupling the formation of PPi to a decrease in NADH concentration (Boehlein et al., 2008). […] The Michaelis constants (Km) were obtained by varying one substrate in the presence of saturating concentrations of the second substrate. The activation constants were obtained by varying the activator at fixed levels of both substrates. All reactions were performed at 37° C. and mixes were prewarmed before starting the reaction with enzyme. […] The absorbance at 340 nm was monitored after 30 min and the amount of PPi produced was determined from a standard curve using PPi in complete reaction mixtures lacking AGPase. Blank samples contained complete reaction mixtures without enzyme and the change in absorbance between the blank and the reaction was used to calculate the amount of PPi produced. […]
(§3) The apparent Michaelis constant and maximum velocity of each reaction was calculated from a V vs. S plots using nonlinear regression analysis and the following equation, v=VmaxS/(Km+S), where v is the measured velocity, Vmax is the maximum velocity, S is the substrate concentration. […]

[2] = molecular target: T2, maize endosperm AGPase, large subunit variant GGRV (Q96G, D161G, A443R, I285V; numbering of SEQ ID NO: 20) (Zea mays, UniProt P55241+Q84PF5, A443R/D161G/I285V/Q96G); assay: Apparent kinetic constants with 3-PGA, 37° C., GGRV; conditions: read-out: ATP Km
T2 sequence (P55241 46-516 A443R/D161G/I285V/Q96G): T1 sequence (P55241 46-516 D161G) with Q51G, I240V, A398R
T2 sequence (Q84PF5 1-474): T1 sequence (Q84PF5 1-474)
Text: as §1, §2, §3

[3] = molecular target: T3, maize endosperm AGPase, evolutionary mutant SH2-E (Zea mays, UniProt P55241+Q84PF5); assay: Apparent kinetic constants with 3-PGA, 37° C., SH2-E; conditions: read-out: ATP Km
T3 construct: data of Boehlein et al., 2013
Description: as §2, §3
Each mutant, comprising 1, 2, 3 or 4 changes, was grown in a large scale culture, expressed and purified according to standard procedures (Boehlein et al., 2005). […] Next, the activation constant, Ka, was determined for each of the mutant enzymes. […]

T3 sequence (P55241 46-516, change not shown, one chain of several): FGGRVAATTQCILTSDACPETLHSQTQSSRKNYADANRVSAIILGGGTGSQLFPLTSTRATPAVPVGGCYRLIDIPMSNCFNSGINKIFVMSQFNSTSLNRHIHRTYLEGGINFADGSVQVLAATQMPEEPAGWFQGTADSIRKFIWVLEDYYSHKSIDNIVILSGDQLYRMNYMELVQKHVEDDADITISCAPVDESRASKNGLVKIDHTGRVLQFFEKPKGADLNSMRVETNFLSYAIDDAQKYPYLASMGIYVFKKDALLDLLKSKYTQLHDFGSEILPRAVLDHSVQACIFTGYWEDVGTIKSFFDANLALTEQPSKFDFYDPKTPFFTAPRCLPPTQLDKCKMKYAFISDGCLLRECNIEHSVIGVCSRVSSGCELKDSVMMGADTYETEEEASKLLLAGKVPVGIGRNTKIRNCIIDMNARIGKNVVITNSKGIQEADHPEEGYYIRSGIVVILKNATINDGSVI

Nc1ncnc2c1ncn2[C@@H]1O[C@H](COP(=O)(O)OP(=O)(O)OP(=O)(O)O)[C@@H](O)[C@H]1O [ATP]
Km ([1]; read-out: ATP Km, with 3-PGA, 37° C.): 44 µM
Km ([1]; read-out: Km for ATP, in the presence of 3-PGA): 40 µM
Km [2]: 46 µM
Km [3]: 100 µM
